Source: US12497460B2, “Anti-MSR1 antibodies and methods of use thereof” (REGENERON PHARMACEUTICALS, INC., priority 2018, dated 2025)
Where two headings read alike, the source gives them in different places. Marks after values point to notes of the source that are not given here.

Columns and labels:
[1] = system: LPS-induced IL-1β release in differentiated THP-1 cells; test: LPS-mediated IL-1β release assay; format: cell-based, human; conditions: for IC50: Homo sapiens, 100 ng/ml LPS for 5 hours, read-out: IC50, inhibition of LPS-induced IL-1β secretion
Experimental: To test the anti-inflammatory properties of anti-MSR1 antibody-steroid conjugates in vitro, a lipopolysaccharide (LPS)-mediated IL-1β release assay was performed. For the assay, THP-1 cells were seeded onto 96 well plates at 40,000 cells/well in media containing RPMI supplemented with 10% FBS and pencillin/streptomycinin and differentiated with 200 nM Phorbol Myristate Acetate (PMA) for 3 days. After the 3-day differentiation period, three-fold serial dilutions of antibody drug conjugates, unconjugated antibodies, or free payloads in fresh media were added to the cells at final concentration ranging from 100 nM to 0.01 nM. Media alone served as a blank control. Subsequently at 24, 48, or 72 hours later, cells were treated with 100 ng/ml LPS (InVivoGen, Cat #tlrl-eklps) for 5 hours. The cell media was then collected, and IL-1β levels were measured using a V-PLEX Proinflammatory Panel 1 human kit (Meso Scale Diagnostics, Cat #15049D-2) as per manufacturer's instructions. Subsequently, the plate was read on a Meso Scale Diagnostics instrument.
IC50 values were determined from a four-parameter logistic equation over a 10-point response curve (GraphPad Prism). All IC50 values are expressed in M (molar) concentration. The IC50 values and IL-1β amount at the maximum concentration of antibody-steroid conjugates or controls are shown in Table 22 each of the time point tested.

[2] = system: Msr1^hu/hu ApoE^−/− mice, peritoneal cells; test: Ex vivo LPS-induced cytokine production by peritoneal cells after in vivo dosing; set-up: species or system mouse; conditions: administered 2 hours before peritoneal cell isolation; ex vivo LPS
Experimental: To examine the anti-inflammatory effect of the anti-MSR1 antibody-steroid conjugates, an ex-vivo and in vivo LPS-induced inflammatory immune response model was performed.
Generation of a mouse inflammatory immune response model. Mice homozygously expressing human MSR1 extracellular domain in place of the mouse MSR1 extracellular domain and with a homozygous deletion of the ApoE gene were utilized (resulting mice referred to as Msr1^hu/hu ApoE^−/− mice).
(§1) Assay protocol for ex vivo LPS-induced responses. In ex vivo LPS challenge experiments, mice were intraperitoneally administered with 10 μL/g of anti-MSR1 antibody-steroid conjugates (H1H21234N-N297Q-LP13), isotype control steroid conjugate (Isotype control-LP13), unconjugated anti-MSR1 antibody (H1H21234N-N297Q) and isotype control antibodies at different time points (24, 48, and 72 hours) prior to harvesting the peritoneal cells from peritoneal cavity. […] All mice were sacrificed at 0 hour time point and peritoneal cells were obtained from the peritoneum by the peritoneal lavage technique. In brief, 5 mL of ice cold 1×PBS (ThermoFisher Scientific, Cat #20012027) containing 2% BSA (Gibco, Cat #A9576) and 0.6 mM EDTA (ThermoFisher Scientific, Cat #15575020) were injected into the peritoneal cavity using 27 g needle. […] The resuspended cells were plated at 500,000 cells per well in 24-well tissues culture plates and incubated with or without 10 ng/mL of LPS for 18 hours.
Measurement of cytokines at 18 hours post-LPS ex vivo challenge. Supernatants were collected into 96-well round bottom tissue culture plates at 18 hours post-ex vivo LPS challenge and stored at […] until further analysis. Cytokine concentrations in the supernatants were measured using a Proinflammatory Panel 1 (mouse) multiplex immunoassay kit (MesoScale Diagnostics, Cat #K15048D) according to manufacturer's instructions. Electrochemiluminescence was read on a Meso Scale Diagnostics SECTOR® instrument. Data analysis was performed using GraphPad Prism™ software. Statistical significance within the groups was determined by one-way Anova with Turkey's multiple comparison post-test (*p<0.01; **p<0.001; ***p<0.0001).

[3] = system: Msr1^hu/hu ApoE^−/− mice, peritoneal macrophages; test: LPS-mediated expression of CD80 on peritoneal macrophages (flow cytometry); format: in vivo, mouse; conditions: administered 2 hours before
Experimental: as §1
Assay protocol for in vivo LPS-induced responses. In in vivo LPS challenge experiments, mice were intraperitoneally administered with 10 μL/g of decreasing concentrations of anti-MSR1 antibody-steroid conjugates (H1H21234N-N297Q-LP13) and isotype control steroid conjugate (Isotype control-N297Q-LP13) at 24 hours prior to in vivo LPS challenge. PBS and free steroid P4 were intraperitoneally injected at 2 hours prior to in vivo LPS challenge. At 0 hour time point, three large drops of blood (volume ˜ 100 μL) were collected from the maxillary vein of each mouse into serum gel separator tubes. The tubes were centrifuged at 2200-2500 rpm for 15 minutes, and the serum was collected into 96-well plates for subsequent measurement of cytokines. At 18 hours post in vivo LPS challenge, the peritoneal cells were obtained from periotenal cavity as aforementioned for subsequent flow cytometry analysis.
Analysis of expression of activation markers on peritoneal macrophages after LPS ex vivo challenge. Upon collection of supernatants for cytokine analysis, the plates were washed twice with 1×PBS w/o Ca^++/Mg2^++ (ThermoFisher Scientific, Cat #14190144), and the adherent peritoneal cells were harvested by addition of 250-300 μL of cold Macrophage Detachment Solution DXF (PromoCell, Cat #C41330) for 40 minutes. The detached cells were collected into 50-mL tubes and centrifuged at 350×g for 15 minutes. After two washes with 1×PBS supplemented with 2 mM EDTA, the cells were resuspended in Cell Staining Buffer (Biolegend, #420201) and plated at 1×10^6 cells per well in a 96-well V bottom plate. […] Data were analyzed using FlowJo (Tree Star).

hMSR1/ApoE-KO mice [4] = test: Anti-type II collagen antibody-induced arthritis (CAIA), clinical scores; format: in vivo, mouse
Experimental: An MSR1-non-cytotoxic antibody drug (ncADC) conjugate was tested in anti-type II collagen antibody-induced arthritis (CAIA) in vivo; cytokine detection in inflamed joints using Proinflammatory Panel 1 (mouse) Multiplex Immunoassay kit (MSD)
To further examine the anti-inflammatory effect of the anti-MSR1 Ab-steroid ncADC, the ncADC was evaluated in a collagen-antibody induced arthritis (CAIA) model in vivo. For the model, mice homozygously expressing human MSR1 extracellular domain and transmembrane domain in place of mouse MSR1 extracellular and transmembrane domains (humanized MSR1) and with a homozygous deletion of the ApoE gene (ApoE-KO) were utilized (resulting mice referred to as hMSR1/ApoE-KO mice).
(§2) To induce CAIA, hMSR1/ApoE-KO mice were intraperitoneally injected with an 8 mg/kg mixture of five anti-type II collagen mAbs (Chondrex, Cat #53100, Lot #180140) on day 0, followed by intraperitoneal administration with 50 μg lipopolysaccharide (LPS; 0111:B4; Chondrex, Cat #53100, Lot #180141) on day 3. Severity of the […] levels of arthritis was graded up to 13 days after mAb injection in each of the four limbs per mouse on a […]. The criteria for the grading were as follows: 0, normal; 1, mild redness and swelling of ankle/wrist or individual digits; 2, moderate redness and swelling of ankle/wrist; 3, severe redness and swelling of the entire paw including the digits; 4, maximal swelling in limbs involving multiple joints. The maximum value of the sum of the scores obtained from the four limbs of each mouse was 16. […] PBS, unconjugated anti-MSR1 Ab (H1H21234N-N297Q) and free steroid payload (P4-1), were intraperitoneally injected every other day or daily (referred to as P4-1 ED). All mice were sacrificed on day 13 and inflamed patella were collected for subsequent homogenization and cytokine detection.

hMSR1/ApoE-KO mice [5] = test: CAIA, pro-inflammatory cytokines in joint homogenates; format: in vivo, mouse
Experimental: as §2
Inflamed knee patella were collected in 2 mL microcentrifuge tubes containing two tungsten carbide beads (Qiagen, Cat #69997) and 500 μL of T-per buffer (Thermo Scientific, Cat #78510, Lot #QF217759) containing protease inhibitor cocktail and 0.5M EDTA (Thermo Scientific, Cat #78444, Lot #RF231047). Tissues were disrupted at the frequency of 30s^−1 for 10 minutes using Qiagen Tissue Lyser II, centrifuged at 14,000 rpm for 7 minutes, and then supernatants were collected without disturbing the pellet. Cytokine concentrations in the supernatants were measured using a Proinflammatory Panel 1 (mouse) multiplex immunoassay kit (MesoScale Discovery, Cat #K15048D) according to the manufacturer's instructions. In brief, 50 μL/well of calibrators and samples (diluted in Diluent 41) were added to the plates pre-coated with capture antibodies and incubated at room temperature while shaking at 700 rpm for 2 hours. The plates were then washed 3 times with 1×PBS containing 0.05% (w/v) Tween-20, followed by the addition of 25 μL of Detection Antibody Solution diluted in Diluent 45. After 2-hour incubation at room temperature while shaking, the plates were washed 3 times, and 150 μL of 2× Read Buffer was added to each well. Electrochemiluminescence was immediately read on MSD Spector© instrument. Cytokine concentrations were normalized per total protein content in tissue homogenates measured using Bradford protein assay (BioRad, Cat #5000006, Lot #64144266). Data analysis was performed using GraphPad Prism™ software. Statistical significance within the groups was determined by one-way Anova with Turkey's multiple comparison post-test (*p<0.01; **p<0.001; ***p<0.0001).

[6] = joint homogenates, 2.95 mg/kg every 2 days

IC50 ([1]; THP-1, 24-hour time point) | IC50 ([1]; THP-1, 48-hour time point) | IC50 ([1]; THP-1, 72-hour time point) | Compound | IL1beta released at max concentration tested ([1]; 24 hour treatment before LPS) | IL1beta released at max concentration tested ([1]; 48 hour treatment before LPS) | IL1beta released at max concentration tested ([1]; 72 hour treatment before LPS) | Cytokine IL-6 [2] | Cytokine KC-GRO [2] | Cytokine TNF-α [2] | LPS-mediated expression of CD80, pMΦ Cells ([3]; hMSR1+F4/80+CD11b+ peritoneal macrophages) | LPS-mediated expression of CD80, non-pMΦ Cells ([3]; hMSR1−F4/80−CD11b− cells) | Clinical Score (hMSR1/ApoE-KO mice [4]; 2.95 mg/kg, every 2 days d6-d12) | inhibition of CAIA (hMSR1/ApoE-KO mice [4]; dosed every day (P4-1ED), compared with H1H21234N-N297Q-P4-3 at 21 mg/kg) | severity of CAIA (clinical scores) (hMSR1/ApoE-KO mice [4]; every other day) | pro-inflammatory cytokine levels in inflamed joints (hMSR1/ApoE-KO mice [5]; administered every other day) | Cytokines IL-1β (hMSR1/ApoE-KO mice [5]; [6]) | Cytokines IL-6 (hMSR1/ApoE-KO mice [5]; [6]) | Cytokines KC-GRO (hMSR1/ApoE-KO mice [5]; [6]) | Cytokines TNF-α (hMSR1/ApoE-KO mice [5]; [6])
0.42 nM | 0.794 nM | 0.543 nM | C[C@@H]1C[C@H]2[C@@H]3CCC4=CC(=O)C=C[C@]4(C)[C@@]3(F)[C@@H](O)C[C@]2(C)[C@@]1(O)C(=O)CO [Dexamethasone, dexamethasone, reference compound] | 45.33 pg/mL | 11.8 pg/mL | 13.34 pg/mL | 134.5 ± 18.2* ng/mL | 19.9 ± 1.5 ng/mL | 0.63 ± 0.11* ng/mL | 77.69 ± 2.6 % relative to PBS/LPS-treatment | 99.6 ± 5.8 % relative to PBS/LPS-treatment | – | – | – | – | – | – | – | –
– | – | – | CCC[C@@H]1O[C@@H]2C[C@H]3[C@@H]4C[C@H](F)C5=CC(=O)C=C[C@]5(C)[C@@]4(F)[C@@H](O)C[C@]3(C)[C@]2(C(=O)CN)O1 [P4-1, (1S,2S,4R,6R,8S,9S,11S,12R,13S,19S)-8-(2-Aminoacetyl)-12,19-difluoro-11-hydroxy-9,13-dimethyl-6-propyl-5,7-dioxapentacyclo[10.8.0.0^2,9.0^4,8.0^13,18]icosa-14,17-dien-16-one] | – | – | – | – | – | – | – | – | 9.4 ± 2.46 | Comparable inhibition of CAIA | did not attenuate CAIA | No effect | 20.6 ± 4.3 pg per mg of total protein | 131.4 ± 40.9 pg per mg of total protein | 8.9 ± 9 pg per mg of total protein | 8.3 ± 1.9 pg per mg of total protein
